For data set [1], the target named is Transporter (Rattus norvegicus, UniProt Q63380). The data set is described as follows: Inhibition of norepinephrine uptake at NET in rat brain synaptosome. It counts as tissue-based.
Data set [2] deals with Sodium-dependent serotonin transporter (Rattus norvegicus, UniProt P31652). The data set is described as follows: Inhibition of serotonin uptake at SERT in rat brain synaptosome. It counts as tissue-based.
The target of data set [3] is Sodium-dependent dopamine transporter (Rattus norvegicus, UniProt P23977). The data set is described as follows: Inhibition of dopamine uptake at cloned DAT in rat brain synaptosome. It counts as tissue-based.
The nature of data set [4]: Efflux ratio in human CaCo2 cells. It counts as ADME, cell-based. The following applies: Caco-2.
In data set [5] the test system is Mus musculus. The data set can be described thus: Antinociceptive activity in formalin-treated mouse model of persistent pain assessed as reduction in number of hind paws flinches at 30 mg/kg. It counts as functional. More on the design: scale not given: the % may be the effect or the level left.
A short description of data set [6]: Apparent permeability across human CaCo2 cells. Type of data set: ADME, cell-based. The following applies: Caco-2. (Passage across Caco-2 layers is used to estimate intestinal permeability.)
Data set [7] concerns Mus musculus. The data set is described as follows: Antinociceptive activity in formalin-treated mouse model of persistent pain assessed as reduction in licking time at 60 mg/kg. Type of data set: functional. More on the design: scale not given: the % may be the effect or the level left.

Molecules are shown by their SMILES. Active and inactive are the calls of the source. The calls are words filed in the database; no cut-off is given here. Where only a bound is given, the exact number is not on record here.

Consider 37 compounds from ChEMBL document CHEMBL1157485, “Studies on the structure-activity relationship of bicifadine analogs as monoamine transporter inhibitors” (Bioorg Med Chem Lett, 2008).

The term IC50 denotes the concentration that gives 50% inhibition. For orientation: efflux ratio means the permeability from basolateral to apical divided by that in the opposite direction, in the common usage. As usually defined, the Papp is the rate of passage across a membrane or cell layer, normalised by area and donor concentration.

Sodium-dependent dopamine transporter, sequence (P23977 whole entry): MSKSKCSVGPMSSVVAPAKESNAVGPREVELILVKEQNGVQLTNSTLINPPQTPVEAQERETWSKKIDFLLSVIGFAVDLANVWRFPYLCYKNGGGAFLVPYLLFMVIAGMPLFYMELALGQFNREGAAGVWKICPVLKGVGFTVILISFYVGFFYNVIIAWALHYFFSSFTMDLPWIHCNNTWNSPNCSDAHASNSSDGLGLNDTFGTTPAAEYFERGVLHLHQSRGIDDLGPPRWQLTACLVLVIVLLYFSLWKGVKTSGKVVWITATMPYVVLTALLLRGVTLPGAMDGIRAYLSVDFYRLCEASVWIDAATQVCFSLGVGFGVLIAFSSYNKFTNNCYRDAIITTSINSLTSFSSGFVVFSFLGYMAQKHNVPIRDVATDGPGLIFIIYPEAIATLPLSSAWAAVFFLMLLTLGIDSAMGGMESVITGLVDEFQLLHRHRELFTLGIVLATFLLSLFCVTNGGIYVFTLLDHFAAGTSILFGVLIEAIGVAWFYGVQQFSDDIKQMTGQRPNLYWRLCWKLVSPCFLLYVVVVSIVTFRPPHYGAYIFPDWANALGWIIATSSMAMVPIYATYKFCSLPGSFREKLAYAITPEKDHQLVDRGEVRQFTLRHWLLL
Sodium-dependent serotonin transporter, sequence (P31652 whole entry): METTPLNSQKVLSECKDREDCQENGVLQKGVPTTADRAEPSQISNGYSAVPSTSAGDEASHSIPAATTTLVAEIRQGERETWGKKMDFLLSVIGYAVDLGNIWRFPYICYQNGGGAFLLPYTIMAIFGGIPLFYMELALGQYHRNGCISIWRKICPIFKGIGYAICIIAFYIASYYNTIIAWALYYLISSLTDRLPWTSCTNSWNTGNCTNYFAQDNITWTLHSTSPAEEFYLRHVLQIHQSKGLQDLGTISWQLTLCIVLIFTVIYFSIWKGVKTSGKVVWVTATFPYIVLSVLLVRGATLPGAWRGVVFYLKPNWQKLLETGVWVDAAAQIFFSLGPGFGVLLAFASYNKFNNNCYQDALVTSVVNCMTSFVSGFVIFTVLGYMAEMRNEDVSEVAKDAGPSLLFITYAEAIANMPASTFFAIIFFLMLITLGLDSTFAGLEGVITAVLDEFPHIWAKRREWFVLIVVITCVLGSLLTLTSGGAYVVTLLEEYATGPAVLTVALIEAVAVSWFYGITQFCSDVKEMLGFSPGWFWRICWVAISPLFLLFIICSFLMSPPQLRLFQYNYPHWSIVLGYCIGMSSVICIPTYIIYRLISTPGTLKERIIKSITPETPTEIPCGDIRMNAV
Transporter, sequence (Q63380 whole entry): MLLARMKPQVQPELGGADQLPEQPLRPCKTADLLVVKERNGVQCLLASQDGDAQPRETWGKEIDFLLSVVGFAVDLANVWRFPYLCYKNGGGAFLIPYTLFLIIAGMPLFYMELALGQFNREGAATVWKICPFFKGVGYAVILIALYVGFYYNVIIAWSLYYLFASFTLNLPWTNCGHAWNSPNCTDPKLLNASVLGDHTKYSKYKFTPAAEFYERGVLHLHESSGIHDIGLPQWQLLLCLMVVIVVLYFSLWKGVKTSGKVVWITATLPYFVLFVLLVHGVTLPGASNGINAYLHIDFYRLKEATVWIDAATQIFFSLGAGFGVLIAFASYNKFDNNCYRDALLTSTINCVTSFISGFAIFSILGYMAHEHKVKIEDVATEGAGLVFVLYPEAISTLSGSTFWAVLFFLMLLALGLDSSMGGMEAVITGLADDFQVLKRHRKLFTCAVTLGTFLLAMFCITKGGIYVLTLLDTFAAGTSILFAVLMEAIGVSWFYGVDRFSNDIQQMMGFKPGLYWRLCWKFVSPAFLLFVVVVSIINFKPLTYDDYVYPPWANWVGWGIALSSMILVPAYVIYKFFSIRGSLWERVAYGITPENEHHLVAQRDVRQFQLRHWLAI

`c1ccc2cc(C34CNCC3C4)ccc2c1` (stereo not given): the figures for the IC50 in data set [1], in data set [2] and in data set [3] were 36 nM, 50 nM and 190 nM, respectively.

Take `FC(F)(F)c1ccc(C23CNCC2C3)s1` (stereo not given): the IC50 in data set [1] was 3100 nM; in data set [2], 190 nM; in data set [3], above 10000 nM.

As to `Clc1ccc([C@@]23CNC[C@@H]2[C@H]3c2ccccc2)cc1Cl` (relative stereo), the concentration for half-maximal inhibition (IC50) in data set [1] stood at 34 nM; in data set [2], 350 nM; in data set [3] it was 360 nM.

For `c1csc(C23CNCC2C3)c1` (stereo not given), the half-maximal inhibitory concentration (IC50) in data set [1] came to 130 nM; in data set [2] it was 4500 nM; in data set [3], 7500 nM.

Regarding `c1ccc(C23CNCC2C3)cc1` (stereo not given), the 50% inhibitory concentration (IC50) in data set [1] came to 350 nM; in data set [2], 5200 nM; in data set [3], 2700 nM.

`c1ccc2oc(C34CNCC3C4)cc2c1` (stereo not given): the half-maximal inhibitory concentration (IC50) in data set [1] was 48 nM; in data set [2] it was 140 nM; in data set [3] it was 330 nM.

For the compound `c1cc2c(cc1[C@@]13CNC[C@@H]1C3)CCO2`, the 50% inhibitory concentration (IC50) in data set [1] was determined as 4800 nM; in data set [2], 610 nM; in data set [3], 9100 nM.

For `Fc1ccc2sc([C@]34CNC[C@H]3C4)cc2c1`, the IC50 in data set [1] turned out to be 67 nM; in data set [2], 33 nM; in data set [3] it was 420 nM.

Consider `Clc1cc(Cl)c(C23CNCC2C3)s1` (stereo not given), for which the results for the IC50 in data set [1], in data set [2] and in data set [3] were 5300 nM, 4200 nM and above 10000 nM, respectively.

Take `Clc1ccc(C23CNCC2C3)s1` (stereo not given): the values for the IC50 in data set [1], in data set [2] and in data set [3] were 130 nM, 190 nM and 3300 nM, respectively.

For `c1cc2c(cc1[C@@]13CNC[C@@H]1C3)CCC2`, the half-inhibitory concentration (IC50) is 2000 nM in data set [1], 97 nM in data set [2] and above 10000 nM in data set [3].

With `c1csc([C@@]23CNC[C@@H]2C3)c1`, the figures for the IC50 in data set [1], in data set [2] and in data set [3] were 150 nM, 4900 nM and 6200 nM, respectively.

As for `c1cc([C@@]23CNC[C@@H]2C3)cs1`, the IC50 amounted to 300 nM in data set [1], 6800 nM in data set [2] and 8200 nM in data set [3].

Regarding `c1ccc2c(C34CNCC3C4)csc2c1` (stereo not given), the values for the IC50 in data set [1], in data set [2] and in data set [3] were 220 nM, 73 nM and 780 nM, respectively.

For `c1ccc(-c2ccc(C34CNCC3C4)cc2)cc1` (stereo not given), the values for the IC50 in data set [1], in data set [2] and in data set [3] were 360 nM, 160 nM and 2300 nM, respectively.

For `c1csc([C@]23CNC[C@H]2C3)c1`, the efflux ratio in data set [4] stood at 0.7. The Activity in data set [5] is 40%. The Papp in data set [6] stood at 17.6 ×10⁻⁶ cm/s. Further, the IC50 in data set [1] stood at 92 nM; in data set [2], 1900 nM; in data set [3] it was 2400 nM.

As to `c1ccc2sc(C34CNCC3C4)cc2c1` (stereo not given), the IC50 in data set [1] amounted to 53 nM; in data set [2], 71 nM; in data set [3], 180 nM.

Turning to `CC1(C)C2CNCC21c1ccccc1` (stereo not given), the IC50 was 7200 nM in data set [1], 1800 nM in data set [2] and above 10000 nM in data set [3].

Consider `Brc1ccc(C23CNCC2C3)s1` (stereo not given), for which the IC50 in data set [1] came out at 190 nM; in data set [2], 140 nM; in data set [3], 2400 nM.

As for `c1cc2c(cc1C13CNCC1C3)OCO2` (stereo not given), the IC50 in data set [1] is 3500 nM; in data set [2] it was 1500 nM; in data set [3] it was above 10000 nM.

With `Cc1ccc(C23CNCC2C3)cc1` (stereo not given) [BICIFADINE], the Activity in data set [7] is 89%.

Consider `O=C1NCC2CC12c1cccs1` (stereo not given), for which the IC50 in data set [1], in data set [2] and in data set [3] was above 10000 nM in each case.

In the case of `c1ccc([C@@H]2[C@H]3CNC[C@]32c2ccccc2)cc1`, the IC50 came to 120 nM in data set [1], 240 nM in data set [2] and 8700 nM in data set [3].

`Clc1ccc([C@]23CNC[C@H]2C3)s1`: the IC50 in data set [1] was 77 nM; in data set [2], 81 nM; in data set [3] it was 1500 nM.

Turning to `c1cnc2ccc(C34CNCC3C4)cc2c1` (stereo not given), the 50% inhibitory concentration (IC50) was determined as 1400 nM in data set [1], 640 nM in data set [2] and 3900 nM in data set [3].

Regarding `C[C@H]1NC[C@@]2(c3cccs3)C[C@@H]12` (relative stereo), the results for the IC50 in data set [1], in data set [2] and in data set [3] were 320 nM, 7600 nM and 3400 nM, respectively.

Take `C[C@@H]1[C@H]2CNC[C@@]12c1ccc(Cl)c(Cl)c1` (relative stereo): the half-maximal inhibitory concentration (IC50) came out at 29 nM in data set [1], 190 nM in data set [2] and 400 nM in data set [3].

On to `C[C@H]1NC[C@@H]2C[C@@]21c1cccs1` (relative stereo), for which the IC50 in data set [1] worked out at 150 nM; in data set [2], 5800 nM; in data set [3] it was 8900 nM.

With `Cc1csc(C23CNCC2C3)c1` (stereo not given), the values for the 50% inhibitory concentration (IC50) in data set [1], in data set [2] and in data set [3] were 6800 nM, above 10000 nM and above 10000 nM, respectively.

As for `Brc1ccc([C@@]23CNC[C@@H]2C3)s1`, the IC50 in data set [1] was 340 nM; in data set [2], 380 nM; in data set [3], 8200 nM.

Regarding `Clc1ccc([C@@]23CNC[C@@H]2C3)s1`, the IC50 in data set [1] is 590 nM; in data set [2], 1300 nM; in data set [3] it was 2500 nM.

Consider `CCOc1ccccc1O[C@@H](c1ccccc1)[C@@H]1CNCCO1`, for which the result in data set [7] was inactive.

In the case of `CN1CC2CC2(c2cccs2)C1` (stereo not given), the 50% inhibitory concentration (IC50) in data set [1] is 1600 nM; in data set [2] it was 6300 nM; in data set [3], above 10000 nM.

In the case of `Fc1ccc([C@]23CNC[C@H]2C3)s1`, the values for the IC50 in data set [1], in data set [2] and in data set [3] were 470 nM, 8100 nM and above 10000 nM, respectively.

With `C[C@@H]1NC[C@@]2(c3cccs3)C[C@@H]12` (relative stereo), the results for the IC50 in data set [1], in data set [2] and in data set [3] were 560 nM, 6000 nM and 9500 nM, respectively.

Take `FC12CNCC1(c1ccccc1)C2` (stereo not given): the IC50 is 1800 nM in data set [1], 2900 nM in data set [2] and above 10000 nM in data set [3].

For `C[C@H]1[C@H]2CNC[C@]21c1ccc(Cl)c(Cl)c1` (relative stereo), the IC50 is 500 nM in data set [1], 200 nM in data set [2] and 500 nM in data set [3].
